# Read-outs that look alike come from different tables or passages of the source.
# Tests used:
# [1] = Solubility of base dye in polystyrene; type: physicochemical; settings: base dye measured to be soluble in polystyrene
# [2] = Description: Salts of lithium can have a variety of properties, including one or more of the following: many salts of lithium are very chemically reactive; others are extremely insoluble; some are not produced in high volume and are, therefore, expensive to use at high concentration; and others have elements with moderate to high atomic numbers, causing quenching of the scintillation light.
# [3] = result in words; cited from earlier work
# [4] = result in words; cited from earlier work; remark: listed apart in the source
smiles,measurement,setting,value
Cc1ccc(C)cc1 [p-Xylene],Solubility,[1],>1000 mM
Cc1ccc(C)c(C)c1 [pseudocumene],Solubility,[1],>1000 mM
[Cl-].[Li+] [Lithium Chloride],Solubility of Compound (wt %) DIM,[2],>15.0 wt %
same,Solubility of Compound (wt %) DMSO,[2],10.20 wt %
same,Solubility of Compound (wt %) H2O,[2],83.50 wt %
C=CN1CCCC1=O [N-Vinyl-2-Pyrrolidone],Hygroscopic,[3],Yes
c1ccc2ccccc2c1 [Naphthalene],Solubility,[1],>1000 mM
O=C([O-])c1ccccc1.[Li+] [Lithium Benzoate],Percentage wt of Lithium in Solution H2O,[2],2.40 % wt/wt
[Li+].[O-][Cl+3]([O-])([O-])[O-] [Lithium Perchlorate],Percentage wt of Lithium in Solution DMSO,[2]; achievable lithium ions in DMSO,2.05 % wt/wt
same,Percentage wt of Lithium in Solution H2O,[2]; achievable lithium ions in H2O,3.70 % wt/wt
same,Solubility of Compound (wt %) DMSO,[2]; maximum solubility in DMSO,31.50 wt %
same,Solubility of Compound (wt %) H2O,[2]; maximum solubility in H2O,56.10 wt %
"CN1CCN(C)C1=O [DMI, 1,3 Dimethyl 2-Imidazolidone]",Miscibility with water,[4],miscible
"CN1CCCC1=O [NMP, Methylpyrrolidone]",Miscibility with water,[4],miscible
Cc1cccc2ccccc12 [1-Methyl Naphthalene],Solubility,[1],>1000 mM
"c1ccc(-c2cnc(-c3ccccc3)o2)cc1 [2,5 Diphenyloxazole]",Solubility,[1],>1500 mM
Cc1ccc2ccccc2c1 [2-Methyl Naphthalene],Solubility,[1],>1000 mM

# From patent publication US20160154122A1, “Scintillating Organic Materials and Methods For Detecting Neutron and Gamma Radiation” (Nanoptics, Incorporated, priority 2011, published 2016)
